We go through one molecule from patent publication US20150216871A1, “Use of a Humic Acid Preparation for Treating Warm-Blooded Animals” (WH […] WEINBÖHLA GMBH, priority 2012, published 2015).

One assay deals with Enterococcus faecalis. Put plainly: MIC of glyphosate and neutralisation by CLK-GA, micro dilution method in RCM Bouillon. Format: cell-based. The text has this:
(§1) The pathogen Enterococcus faecalis was isolated from the microalgae Chlorella vulgaris to citrate-acid-tween-carbonate (CATC) agar. Suspicious colonies (gram positive, catalase negative cocci) were inoculated to blood agar plates (oxoid) and differentiated by using biochemical tests. The species differentiation was confirmed by means of MALDI-TOF-MS. The isolation of the pathogen Bacillus badius was done from Chlorella vulgaris to blood agar (oxoid). The species differentiation was done based on biochemical parameters. The confirmation was done by means of MALDI-TOF-MS.
(§2) Commercially available glyphosate preparation Roundup UltraMax® (450 g/l glyphosate as isopropylamine salt on SL formulation) was used for the test.
(§3) The value for the minimal inhibitory concentration of glyphosate for the indicator germs (MIC) was determined by using micro dilution method (MID) in accordance with the current specifications of the National Committee for Clinical Laboratory Standards (NCCLS). It was carried out for E. faecalis and B. Badius in RCM Bouillon (SIFIN).
(§4) The determination of the neutralising effect of humic acid product CLK-GA for glyphosate was done through glyphosate MIC. The MIC determinations for glyphosate and glyphosate-CLK-GA mixture was carried out in RCM Bouillon as described above. CLK-GA was used in the concentrations of 1.0, 0.5 and 0.25 mg/ml. The neutralisation of glyphosate was carried out in RCM Bouillon in the concentrations of 300 μg/ml, 600 μg/ml, 1200 μg/ml and 2400 μg/ml mixed with 1 mg/ml, 0.5 mg/ml and 0.25 mg/ml CLK-GA and kept overnight at 37° C. After centrifugation (3000 U/min) and filtration of the individual formulations through a centrifugal filter (3Kda, VWR, Mexico)m […] KbE E. faecalis and B. Badius was given to these. After growing it overnight at 37° C., the contents of each tube was spread on CATC agar or blood agar and was evaluated after 48 h.

The test system of another assay is Bacillus badius. The assay is described as above. It counts as cell-based.
From the text: as §1, §2, §3, §4

[1] abbreviates: 10^4 KbE/ml suspension, end concentration 300 μg/ml glyphosate and/or 1 mg/ml CLK-GA.

Regarding `O=C(O)CNCP(=O)(O)O` [Glyphosate, glyphosate], the “growth / elimination of germs in suspension” value with Enterococcus faecalis (setting [1]) and with Bacillus badius (setting [1]) was “growth was absent” throughout. The MIC (in general, the least concentration at which growth counts as inhibited) worked out at 200 µg/mL in the assay on Enterococcus faecalis (Enterococcus faecalis, read-out: MIC values Glyphosate) and 150 µg/mL in the assay on Bacillus badius (Pseudobacillus badius, read-out: MIC values Glyphosate).
